Measured values: ChEMBL document CHEMBL1133318, “Isoniazid-related copper(II) and nickel(II) complexes with antimycobacterial in vitro activity. Part 9” (Bioorg Med Chem Lett, 2000)
≈ marks a conversion by molar mass, not a printed value.

Experiments:
[1] = system: Mycobacterium tuberculosis; test: In vitro anti-mycobacterial activity against Mycobacterium tuberculosis H37Rv (Rifampin and Isoniazid susceptible ATCC 27294 strain); format: functional; design: concentration or dose not given beside the values
[2] = system: Mycobacterium tuberculosis; test: In vitro antimicrobacterial activity to inhibit 90% of Mycobacterium tuberculosis H37Rv (Rifampin and Isoniazid susceptible ATCC 27294 strain), relative to that of controls; format: functional
Mycobacterium avium = test: In vitro anti-mycobacterial activity against Mycobacterium avium at 12.5 ug/mL; format: functional
[3] = Safety index from cytotoxicity to that of minimal inhibitory concentration; format: toxicity; details: read-out: S.I
Vero = test: Compound was tested for its cytotoxicity on Vero cells; format: functional, cell-based; details: Chlorocebus sabaeus

| SMILES | Inhibition [1] | MIC [2] | inhibition at 12.5 µg/mL (Mycobacterium avium) | selectivity ratio [3] | IC50 (Vero) |
| --- | --- | --- | --- | --- | --- |
| COc1ccc(/C=N/NC(=O)c2ccncc2)cc1F | 99% | < 0.2 µg/mL |  |  |  |
| O=C(N/N=C/c1ccc(C(F)(F)F)cc1)c1ccncc1 | 100% | < 0.2 µg/mL | 82% |  |  |
| O=C(N/N=C/c1ccccc1F)c1ccncc1 | 100% | 0.05 µg/mL (≈ 0.206 µM) |  | 168 | 8.4 µg/mL (≈ 34.5 µM) |
| C/C(=N\NC(=O)c1ccncc1)c1ccc(Cl)c(Cl)c1 | 100% | < 0.2 µg/mL |  |  |  |
| O=C(N/N=C(\c1ccccc1)C(F)(F)F)c1ccncc1 | 100% | 6.25 µg/mL (≈ 21.3 µM) |  |  |  |
| C/C(=N\NC(=O)c1ccncc1)C(F)(F)F | 99% | 0.05 µg/mL (≈ 0.216 µM) |  |  |  |
| O=C(N/N=C/C(F)(F)F)c1ccncc1 | 100% | 0.05 µg/mL (≈ 0.23 µM) |  |  |  |
| C/C(=N\NC(=O)c1ccncc1)c1ccccc1F | 100% | 0.2 µg/mL (≈ 0.777 µM) |  | > 625 | > 125 µg/mL |
| C/C=N/NC(=O)c1ccncc1 | 99% | 0.025 µg/mL (≈ 0.153 µM) |  |  |  |
| C/C(=N\NC(=O)c1ccncc1)c1ccc(F)cc1 | 99% | < 0.2 µg/mL |  | > 50 | > 10 µg/mL |
| O=C(N/N=C/c1cccc(F)c1)c1ccncc1 | 99% | < 0.2 µg/mL | 82% | > 31.2 | > 6.25 µg/mL |
| O=C(N/N=C/c1cccc(C(F)(F)F)c1)c1ccncc1 | 99% | 0.1 µg/mL (≈ 0.341 µM) |  | > 100 | > 10 µg/mL |
| C/C(=N\NC(=O)c1ccncc1)c1cccc(F)c1 | 100% | < 0.05 µg/mL |  |  |  |
| NNC(=O)c1ccncc1 [ISONIAZID] |  | 0.05 µg/mL (≈ 0.365 µM) |  |  | > 1000 µg/mL |
| CO[C@H]1/C=C/O[C@@]2(C)Oc3c(C)c(O)c4c(O)c(c(/C=N/N5CCN(C)CC5)c(O)c4c3C2=O)NC(=O)/C(C)=C\C=C\[C@H](C)[C@H](O)[C@@H](C)[C@@H](O)[C@@H](C)[C@H](OC(C)=O)[C@@H]1C [RIFAMPIN] |  | 0.06 µg/mL (≈ 0.0729 µM) |  |  | 147 µg/mL (≈ 179 µM) |
